The text below walks through data of patent publication US8461183B2, “PPAR agonist compounds, preparation and uses” (Genfit, priority 2008, dated 2013).

The experiment concerns db/db mouse. Put plainly: Antidiabetic character in the db/db mouse: plasma glycemia, insulinemia, HOMA index. Type of experiment: in vivo. As to conditions: 30 mpk oral, 8 days. On the procedure: The aim of this study is to evaluate in vivo the antidiabetic character of the compounds according to the invention, in the db/db mouse (Berger J et al., 1996). The antidiabetic effect of the compounds is evaluated by measuring glycemia and insulinemia after 8 days of treatment. In diabetic animals (as in humans), administration of glucose leads to a significant increase in the plasma level of insulin. This induced hyperinsulinemia causes a lowering of glycemia, which is delayed in insulin-resistant animals, for example in the db/db mouse.
Male db/db mice (CERJ—Le Genest St Isle-France) are used for this experiment. After acclimation for one week, the mice were weighed and put into groups of 8 animals, selected in such a way that the distribution of their bodyweight and of their fasting glycemia determined for the first time before the experiment are uniform. The compound tested was suspended in carboxymethylcellulose (Sigma C4888) and administered by stomach tube, at a rate of once a day for 9 days at the chosen dose. The animals had free access to water and food (standard diet) and were housed in ventilated cages with a rhythm of light and darkness of 12 hours/12 hours at a constant temperature of 20±3° C. The food intake and weight gain were recorded throughout the experiment. After administration of the compound for 8 days, a blood sample was taken by puncture in the retro-orbital sinus of the animals under volatile anesthesia with isoflurane in order to measure the plasma concentrations of glucose and insulin.
Assay of murine insulin is carried out by the Elisa method (Insulin Elisa Kit-Crystal Chem. USA). A mouse anti-insulin antibody is fixed on a microplate. The serum to be assayed for insulin is then deposited on this plate. A guinea pig anti-insulin antibody will recognize the insulin/mouse monoclonal anti-insulin antibody complex and bind to it. […]
Glucose was determined by enzyme assays (bioMérieux-Lyons-France) according to the suppliers recommendations.

As to `COc1nc(-c2ccc(C(F)(F)F)cc2)ccc1COc1ccc(OCC(=O)O)cc1` [Cpd 24, 2-(4-((2-methoxy-6-(4-(trifluoromethyl)phenyl)pyridin-3-yl)methoxy)-phenoxy)ethanoic acid], the “glycemic profile (plasma glucose)” value is listed as “overall improvement” and the “insulinemic profile (plasma insulin)” value is listed as “overall improvement”. Besides, the HOMA index result (calculated from plasma glucose and insulin) is on record as “decrease”.
